One data set concerns HaCaT cells. As to the kind of experiment: Cytotoxicity, 72 h resazurin cell viability assay. It is filed as cell-based, human. The conditions noted are these: HaCaT cells, 72 h; read-out: CC50. The protocol: Cells were seeded in a 96-well plate contained 100 μL culture medium in triplicate and treated with several compounds for 72 h. At the assay time point, resazurin (Cayman Chemical) was added and further incubated for 4 h at 37 °C. Fluorescence of the reduced resazurin was measured as described previously.
Figure 3 The cytotoxicity of 12b, 13b, and 14b in HaCaT cells. HaCaT cells were treated with indicated concentrations of these three compounds for 72 h. Cell viability was determined by a resazurin assay as described in the Materials and Methods section. Data presented as mean ± SD from three independent experiments.

Data set [1] has as its system NRF2. As to the kind of experiment: Western blot of NRF2 protein in HaCaT cells. It is filed as cell-based, human. To be noted: 8 h. The protocol:
(§1) To further evaluate the effect of compound 13b on NRF2 activation, the mRNA level of NRF2 target genes were determined by real-time PCR.
Cells were washed with PBS and harvested with RIPA lysis buffer (50 mM Tris (pH 7.5), 150 mM NaCl, 1% Tx-100) supplemented with protease and phosphatase inhibitors (1 mM PMSF, 10 μg/mL leupeptin, 50 μg/mL TLCK, 50 μg/mL TPCK, 1 μg/mL aprotinin, 1 mM NaF, 5 mM NaPPi, and 10 mM Na3VO4). The cell lysates were cleared via 10 min spins at 13,000 rpm, 4 °C. Protein concentrations were determined by a Bio-Rad Protein Assay (Bio-Rad, Hercules, CA, USA). Samples corresponded to 20 μg of protein were used for Western blot according to our previous publication. The following antibodies were used: anti-NRF2 (GeneTex, Irvine, CA, USA) and anti-GAPDH (Abcam, Cambridge, MA, USA).
(§2) Figure 5 The compound 13b increased the NRF2 expression at the protein level in the HaCaT cell. (A) HaCaT cells were treated with indicated concentrations of compound 13b for 8 h. Protein expression of NRF2 was determined by Western blot. (B) HaCaT cells were treated with indicated concentrations of 13b for 18 h. Total RNA was isolated and submitted to reverse transcription and real-time PCR for the detection of the NRF2 mRNA level.

For data set [2], the system named is NRF2. Briefly: ARE-driven luciferase reporter assay (NRF2 activity) in HaCaT/ARE stable cells. It is filed as cell-based, human. An excerpt:
In this study, we used a stable ARE-driven reporter system to screen the potential NRF2 activators.
In general terms: A reporter such as luciferase makes a cellular process visible.

For a further data set, the system named is NRF2 mRNA. Briefly: qRT-PCR of NRF2 mRNA in HaCaT cells. To be noted: 18 h, real-time PCR. It is filed as cell-based, human. The method, then:
as §1
(§3) RNA was prepared by using the TRIzol Reagent (Thermo Scientific, Madison, WI, USA) and was reverse transcribed into cDNA using a TOOLs Easy Fast RT Kit (TOOLs Biotechnology, New Taipei City, Taiwan). PCR was performed on an ABI StepOne Plus System (Applied Biosystems, Foster City, CA, USA) using the KAPA SYBR® FAST qPCR Master Mix (2X) Kit (Sigma-Aldrich, St. Louis, MO, USA). The mRNA level was normalized using the glyceraldehyde 3-phosphate dehydrogenase (GAPDH) mRNA level as the standard. The following primers were used: NRF2 forward: 5′-[…] and reverse: 5′-[…]; HO1 forward: 5′-GCCAGCAACAAAGTGCAAG and reverse: 5′-[…]; NQO1 forward: 5′-[…] and reverse: 5′-[…]; GCLC forward: 5′-[…] and reverse: 5′-[…]; G6PD forward: 5′-CAACATCGCCTGCGTTA and reverse: 5′-CTTGACCTTCTCATCACGG; and GAPDH forward: 5′-[…] and reverse: 5′-[…].
as §2

The test system of data set [3] is NRF2 target genes (HO1, G6PD, GCLC). As to the kind of experiment: qRT-PCR of NRF2 target genes in HaCaT cells. It is filed as cell-based, human. The conditions noted are these: 18 h, real-time PCR. The protocol: as §1, §3
Figure 4 Compound 13b increased the expression of NRF2 target genes in the HaCaT cell. HaCaT cells were treated with indicated concentrations of 13b for 18 h. Total RNA was isolated and submitted to reverse transcription and real-time PCR for the detection of the NRF2 target genes including HO1 (A), GLCL (B), G6PD (C), and NQO1 (D). Data are expressed as normalized mRNA level and presented as mean ± SD from three independent experiments. The asterisk (*) indicates a significant difference between 13b treated groups and control group (* p< 0.05, *** p< 0.001, one-way ANOVA).

A further data set deals with HaCaT/ARE cells. As to the kind of experiment: Cell viability (resazurin) in the reporter screen. On the technique in general: The colour change of resazurin is a common sign of viable cells or microbes.

Where “and” joins values, the source holds several entries; their conditions need not be identical. Equal values may be shown once.

Consider 1 substance from publication PMC7396997, “Discovery of 4-Anilinoquinolinylchalcone Derivatives as Potential NRF2 Activators” (Molecules, 2020).

Procedure for HaCaT/ARE cells: Immortalized human keratinocytes HaCaT were cultured in the Dulbecco’s modified Eagle’s medium (DMEM; Gibco BRL, Grand Island, NY, USA) with 10% heat-inactivated fetal bovine serum (HyClone, Logan, UT, USA), penicillin (100 U/mL), and streptomycin (100 μg/mL) in a humidified incubator with 5% CO2. HaCaT/ARE stable cells were grown in DMEM supplemented with 100 μg/mL of hygromycin.
HaCaT/ARE stable cells were seeded (1 × 10^4 cells/well) in a 96 well plate, then were treated with indicated concentrations of compounds for 18 h. At the assay time point, resazurin (Cayman Chemical, Ann Arbor, MI, USA) was added to a final concentration of 0.1 mg/mL and further incubated for 4 h at 37 °C. Fluorescence of the reduced resazurin (ex/em: 530 nm/590 nm) was measured from the culture supernatant by using a Synergy HT Multi-Mode Reader (BioTek, Winooski, VT, USA) to determine cell viability. The cells were then harvested for luciferase activity measurements according to the manufacturer’s protocol (Promega Corporation, Madison, WI, USA). Relative luciferase activity was calculated by normalizing luciferase activity to cell viability, and DMSO solvent control was used as 100% activity.

A word on the CC50: it is the concentration that lowers cell viability or growth by half. The EC50 is the concentration giving half of the maximal effect. On to “(E)-3-{4-[(4-acetylphenyl)amino]quinolin-2-yl}-1-(4-fluorophenyl)prop-2-en-1-one [13b]”, for which the CC50 in the data set with HaCaT cells is greater than 100000 nM. Moreover, in the data set with NRF2 [1], the “expression of NRF2 protein” value is on record as “effectively enhance”. Also, in the data set on NRF2 [2] (10 μM, 24 h (b12; method b59 says 18 h), luciferase normalised to cell viability, DMSO control = 100%), the “% of Relative NRF2 Activity in HaCaT Cell” value was 2205% and 2205.2 ± 144.9%. Besides, the EC50 with NRF2 [2] (HaCaT/ARE cells, 18 h, dose-response, read-out: EC50 of NRF2 promoter activity) was 1950 nM. Further, the “mRNA of NRF2” value with NRF2 mRNA is recorded as “without altering”. Further, in data set [3], the “G6PD mRNA expression” value was “significantly increased”, the “GCLC mRNA expression” value was “significantly increased” and the “HO1 mRNA expression” value was “significantly increased”. This substance came in with a survival rate with HaCaT/ARE cells (10 µM) of 96%. In addition, the “Cell Viability” value with HaCaT/ARE cells (10 μM, in % (unit assumed)) turned out to be 95.7 ± 1.8.
